Literature values, collected in patent US20190209538A1, “Precision Controlled Load and Release Particles for Post-Operative Pain” (LIQUIDIA TECHNOLOGIES, INC., priority 2016, published 2019).

What was measured:
[1] = room temperature, aqueous system between pH 7.0 and pH 9.0
[2] = in vivo

| Compound | solubility relative to bupivacaine HCl [1] | clearance rate [2] |
| --- | --- | --- |
| CCCCN1CCCCC1C(=O)Nc1c(C)cccc1C (stereo not shown) [bupivacaine free base, bupivacaine] | less soluble than bupivacaine HCl |  |
| CCCCN1CCCCC1C(=O)Nc1c(C)cccc1C (stereo not shown) [bupivacaine] |  | 0.58 L/min |
| CCCCN1CCCC[C@H]1C(=O)Nc1c(C)cccc1C [levobupivacaine] |  | 0.32 L/min |
| CCCN1CCCC[C@H]1C(=O)Nc1c(C)cccc1C [ropivacaine] |  | ~0.72 L/min |
